Data set [1] deals with T1, Polycomb protein EED (Homo sapiens, UniProt O75530). The data set can be described thus: Binding affinity to full length EED (unknown origin) assessed as increase in melting temperature at 100 uM incubated for 30 mins by TSA. The following applies: tested as the 2H-labelled form.
Target sequence in this assay (O75530 2-441 limits assumed): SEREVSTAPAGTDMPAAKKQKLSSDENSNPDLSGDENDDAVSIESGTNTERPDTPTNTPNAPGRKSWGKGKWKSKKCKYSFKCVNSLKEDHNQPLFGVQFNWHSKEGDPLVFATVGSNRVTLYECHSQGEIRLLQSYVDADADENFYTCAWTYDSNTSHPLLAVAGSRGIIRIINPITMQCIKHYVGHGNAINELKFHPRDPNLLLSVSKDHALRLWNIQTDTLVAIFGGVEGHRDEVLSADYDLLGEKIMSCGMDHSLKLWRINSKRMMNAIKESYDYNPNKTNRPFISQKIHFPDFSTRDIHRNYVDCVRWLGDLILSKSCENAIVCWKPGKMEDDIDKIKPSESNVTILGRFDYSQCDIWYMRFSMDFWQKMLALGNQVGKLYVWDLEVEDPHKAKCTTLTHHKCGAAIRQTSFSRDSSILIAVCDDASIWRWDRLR
For data set [2], the target named is T1, Polycomb protein EED. The data set can be described thus: Binding affinity to full length EED (unknown origin) assessed as increase in melting temperature at 50 uM incubated for 30 mins by TSA. The following applies: tested as the 2H-labelled form.
Target sequence in this assay (O75530 2-441 limits assumed): as above
In data set [3] the target is T1, Polycomb protein EED. The data set can be described thus: Inhibition of EED (unknown origin).
Target sequence in this assay (O75530 whole entry): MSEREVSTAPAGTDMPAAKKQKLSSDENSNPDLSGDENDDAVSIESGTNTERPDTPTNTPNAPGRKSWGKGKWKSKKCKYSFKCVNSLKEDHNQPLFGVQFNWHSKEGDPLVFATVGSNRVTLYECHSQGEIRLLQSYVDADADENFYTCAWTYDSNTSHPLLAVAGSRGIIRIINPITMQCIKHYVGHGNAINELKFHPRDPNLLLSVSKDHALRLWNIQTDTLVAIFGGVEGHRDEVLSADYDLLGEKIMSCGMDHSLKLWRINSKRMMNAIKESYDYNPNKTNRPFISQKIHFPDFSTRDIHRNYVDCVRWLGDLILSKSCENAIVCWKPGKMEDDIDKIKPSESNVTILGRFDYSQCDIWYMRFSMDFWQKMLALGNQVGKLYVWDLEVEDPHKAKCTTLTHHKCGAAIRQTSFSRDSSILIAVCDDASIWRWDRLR
Data set [4] deals with T1, Polycomb protein EED. The following applies: dose 500.0 µM.
Target sequence in this assay (O75530 2-441 limits assumed): as the sequence (O75530 2-441 limits assumed) above
Description: Binding affinity to GST-tagged EED (unknown origin) assessed as thermal stability by measuring melting temperature at 500 uM by TSA method
The target of data set [5] is T1, Polycomb protein EED. The data set can be described thus: Binding affinity to EED (unknown origin) assessed as dissociation constant.
Target sequence in this assay (O75530 whole entry): as the sequence (O75530 whole entry) above
Data set [6] has as its system Pfeiffer. Kind of data set: Antiproliferative activity against human Pfeiffer cells treated for 14 days. The format is functional, cell-based. To be noted: 336 h.
Data set [7] has as its system KARPAS-422. The data set can be described thus: Antiproliferative activity against human KARPAS-422 cells treated for 11 days. Type of data set: functional, cell-based. To be noted: KARPAS-422, 264 h.
For data set [8], the target named is T1, Polycomb protein EED. Kind of data set: Inhibition of human EED (76 to 441 residues) expressed in Escherichia coli strain BL21(DE3) by alpha screen assay. On the technique in general: Bead proximity is the source of the signal in Alpha formats.
Target sequence in this assay (O75530 whole entry): as above
Data set [9] can be described thus: Inhibition of EZH2-EED (unknown origin) protein interaction by FP binding assay. Also noted: species or system Homo sapiens.
Data set [10] is described as follows: Binding affinity to EZH2-EED (unknown origin) protein interaction assessed as inhibition constant by FP binding assay. Also noted: species or system Homo sapiens.
The species named for data set [11] is Homo sapiens. The data set can be described thus: Inhibition of GST-tagged EZH2/FLAG-tagged EED (unknown origin) protein protein interaction at 100 uM incubated for 1 hr by AlphaLISA method relative to control.
Data set [12] in a line: Inhibition of PRC2 (unknown origin). Also noted: species or system Homo sapiens.
The target of data set [13] is T1, Polycomb protein EED. Kind of data set: Binding affinity to EED (unknown origin) assessed as dissociation constant by SPR analysis. In general terms: SPR reads the build-up and loss of mass on a sensor chip optically.
Target sequence in this assay (O75530 whole entry): as above
A short description of data set [14]: Solubility of the compound at pH 7.4. Type of data set: physicochemical. To be noted: buffer.
Data set [15] in a line: Inhibition of GST-tagged EZH2/FLAG-tagged EED (unknown origin) protein protein interaction incubated for 1 hr by AlphaLISA method. Also noted: species or system Homo sapiens.

Values after ≈ are worked out from the molar mass of the structure shown. Structures can show the parent of a compound that is named as a salt. Bounds are passed on as bounds.

In general, ΔTm refers to the change in melting temperature against a reference sample. With `Cc1ncccc1-c1cnc(NCc2c(F)ccc3c2CCO3)n(C)c1=O`, the ΔTm in data set [1] amounted to 10 °C; in [2] it was 6 °C.
The IC50 is the midpoint of a concentration-inhibition curve. On to `Cc1ncccc1-c1cnc(NCC2Cc3cc(F)ccc3O2)c2cncnc12` (stereo not drawn), for which the IC50 in data set [3] was less than 100 nM.
As for `CN(C)[C@@H]1CN(C2CCc3cccc(F)c32)C[C@H]1c1ccc(N2CCN(S(C)(=O)=O)CC2)cc1` (stereo partly drawn), in data set [4], the shift in melting temperature (ΔTm) turned out to be 18 °C.
The Kd is a measure of binding affinity in units of concentration. On to `Cc1ncccc1-c1cc2c(n3cnnc13)NCc1c(F)ccc3c1[C@H](CO3)CO2` [POCIREDIR], for which the Kd in [5] stood at 163 nM.
For the compound `Cc1cc(-c2cnc(NCC3Cc4cc(F)ccc4O3)n3cc(C#N)nc23)n(C)n1` (stereo not drawn), the IC50 in data set [3] was less than 100 nM.
`CS(=O)(=O)N1CC=C(c2cnc(NCC3Cc4cc(F)ccc4O3)n3cnnc23)CC1` (stereo not drawn): the figures for the concentration for half-maximal inhibition (IC50) in data set [6], in [3] and in [7] were 1 nM, less than 20 nM and 13 nM, respectively.
With `Cc1nc(NCc2c(F)ccc3c2CCO3)sc1-c1ccnn1C`, the Kd in data set [5] is 900 nM. In data set [8], this compound had a half-maximal inhibitory concentration (IC50) of 2100 nM.
Usually Ki stands for a dissociation constant, usually derived from enzyme kinetics or from competition with a known ligand. As to `CCCCC1C(=O)N(c2ccccc2)N(c2ccc(O)cc2)C1=O` (stereo not drawn) [OXYPHENBUTAZONE ANHYDROUS], in data set [9], the 50% inhibitory concentration (IC50) came out at 229000 nM. For the same compound, the Ki in data set [10] came out at 44500 nM.
`Cc1ncccc1-c1sc(NCc2c(F)ccc3c2CCO3)nc1C`: the dissociation constant (Kd) in data set [5] came to 3700 nM. 5600 nM corresponded to half-maximal inhibition in data set [8] (IC50).
In general, inhibition refers to the percentage by which the read-out fell short of the control. A higher inhibition goes with strong suppression. As for `O=C(CC1S/C(=N\c2ccccc2F)N(Cc2ccc3c(c2)OCO3)C1=O)Nc1ccc(C(=O)O)cc1` (stereo not drawn), the inhibition in data set [11] was determined as 49%.
Turning to `CCS(=O)(=O)N1CC=C(c2cnc(NCC3Cc4cc(F)ccc4O3)n3cnnc23)CC1` (stereo not drawn), the IC50 was 0.8 nM in [6], less than 20 nM in data set [3] and 4 nM in [7].
Consider `CN1CCc2cccc3c2[C@H]1Cc1ccc(O)c(O)c1-3` [APOMORPHINE HYDROCHLORIDE], for which the IC50 in data set [9] worked out at 15500 nM. The inhibitory constant (Ki) in data set [10] worked out at 2900 nM.
As to `CN1CC=C(c2cnc(NCC3Cc4cc(F)ccc4O3)c3cncnc23)CC1` (stereo not drawn), the IC50 in data set [3] is less than 100 nM.
Compound `Cc1ncccc1-c1cnc(NCc2c(F)ccc3c2CCO3)n2cnnc12` displayed a half-maximal inhibitory concentration (IC50) in [12] of 5 nM. For the same compound, the equilibrium dissociation constant (Kd) in data set [13] worked out at 0.4 nM.
The solubility is the concentration that dissolves in the medium under given conditions. A high value points to a readily soluble substance. For the compound `Cc1ncccc1-c1cnc(NCc2c(F)cc(Cl)c3c2CCO3)n2cnnc12`, in data set [12], the IC50 was determined as 16 nM. The amount in solution in [14] (solubility) came to 0.2 µM (≈ 0.0822 µg/mL). Further, in [13], the Kd was determined as 2.4 nM.
Regarding `C[C@@H](CO)NC(=O)[C@@H]1C=C2c3cccc4[nH]cc(c34)C[C@H]2N(C)C1` [ERGONOVINE MALEATE], the IC50 in [9] came out at 366000 nM. The Ki in [10] was determined as 71100 nM.
`O=C1Nc2ccc(S(=O)(=O)NCCCCCCNS(=O)(=O)c3ccc4c5c(cccc35)C(=O)N4)c3cccc1c23` registered an inhibition in data set [11] of 84%.
As to `COC(=O)C1=C(C)NC(C)=C(C(=O)OC)C1c1ccccc1[N+](=O)[O-]` [NIFEDIPINE], the IC50 in [9] turned out to be 343000 nM. Moreover, in data set [10], the Ki came to 66600 nM.
The compound `CCOc1ccc(C(=O)CSc2nnc(-c3ccc(O)cc3)c(-c3ccc(O)cc3)n2)cc1NC(=O)CC` displayed a 50% inhibitory concentration (IC50) in [15] of 64000 nM.

The record behind these values is ChEMBL document CHEMBL5126528, “Recent strategies targeting Embryonic Ectoderm Development (EED) for cancer therapy: Allosteric inhibitors, PPI inhibitors, and PROTACs” (Eur J Med Chem, 2022).
